{"source": "ChEMBL document CHEMBL4184249", "about": "“Structural development of tetrachlorophthalimides as liver X receptor β (LXRβ)-selective agonists with improved aqueous solubility” (Bioorg Med Chem Lett, 2018)", "key": {"[1]": {"molecular_target": "T1, Oxysterols receptor LXR-alpha (Homo sapiens) (UniProt Q13133)", "T1 sequence (whole entry)": "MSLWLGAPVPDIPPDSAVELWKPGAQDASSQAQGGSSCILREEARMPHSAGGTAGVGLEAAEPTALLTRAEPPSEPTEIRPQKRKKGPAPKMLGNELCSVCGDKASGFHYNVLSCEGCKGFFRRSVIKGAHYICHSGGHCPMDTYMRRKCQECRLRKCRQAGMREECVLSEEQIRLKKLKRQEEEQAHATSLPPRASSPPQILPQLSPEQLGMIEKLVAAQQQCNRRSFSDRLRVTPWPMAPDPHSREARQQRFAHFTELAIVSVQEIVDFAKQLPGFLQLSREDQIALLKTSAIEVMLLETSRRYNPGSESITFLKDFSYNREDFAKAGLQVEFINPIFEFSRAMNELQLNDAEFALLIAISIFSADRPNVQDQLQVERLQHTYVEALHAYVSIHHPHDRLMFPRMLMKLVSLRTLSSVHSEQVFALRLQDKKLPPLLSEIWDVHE", "assay": "Agonist activity at human LXRalpha expressed in HEK293 cells co-expressing CMX-beta-galactosidase at 30 uM incubated for 16 hrs by luciferase reporter gene assay", "assay_type": "cell-based"}, "[2]": {"molecular_target": "T2, Retinoic acid receptor alpha (Homo sapiens) (UniProt P10276)", "T2 sequence (whole entry)": "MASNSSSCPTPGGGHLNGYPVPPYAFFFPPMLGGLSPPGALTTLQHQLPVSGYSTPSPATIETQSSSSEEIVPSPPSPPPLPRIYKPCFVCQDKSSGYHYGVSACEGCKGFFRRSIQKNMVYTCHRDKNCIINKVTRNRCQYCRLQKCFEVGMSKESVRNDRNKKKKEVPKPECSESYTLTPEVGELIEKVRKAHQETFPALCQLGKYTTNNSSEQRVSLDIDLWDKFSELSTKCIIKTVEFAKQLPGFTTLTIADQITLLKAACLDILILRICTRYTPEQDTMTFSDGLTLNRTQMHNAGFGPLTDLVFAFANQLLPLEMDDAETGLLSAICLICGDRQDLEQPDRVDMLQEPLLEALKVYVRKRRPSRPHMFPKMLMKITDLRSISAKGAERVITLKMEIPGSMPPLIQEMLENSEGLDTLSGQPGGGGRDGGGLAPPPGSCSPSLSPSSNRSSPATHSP", "assay": "Agonist activity at GAL4-tagged RARalpha (unknown origin) expressed in HEK293 cells co-expressing CMX-beta-galactosidase at 0.3 to 30 uM incubated for 16 hrs by luciferase reporter gene assay", "assay_type": "cell-based"}, "[3]": {"molecular_target": "Oxysterols receptor LXR-beta (Homo sapiens, UniProt P55055)", "assay": "Agonist activity at LXRbeta ligand-binding domain (unknown origin) incubated for 1.5 hrs using fluorescein-labeled coactivator peptide by TR-FRET competitive binding assay"}, "[4]": {"molecular_target": "T3, Oxysterols receptor LXR-beta (Homo sapiens, UniProt P55055)", "T3 sequence (P55055 whole entry)": "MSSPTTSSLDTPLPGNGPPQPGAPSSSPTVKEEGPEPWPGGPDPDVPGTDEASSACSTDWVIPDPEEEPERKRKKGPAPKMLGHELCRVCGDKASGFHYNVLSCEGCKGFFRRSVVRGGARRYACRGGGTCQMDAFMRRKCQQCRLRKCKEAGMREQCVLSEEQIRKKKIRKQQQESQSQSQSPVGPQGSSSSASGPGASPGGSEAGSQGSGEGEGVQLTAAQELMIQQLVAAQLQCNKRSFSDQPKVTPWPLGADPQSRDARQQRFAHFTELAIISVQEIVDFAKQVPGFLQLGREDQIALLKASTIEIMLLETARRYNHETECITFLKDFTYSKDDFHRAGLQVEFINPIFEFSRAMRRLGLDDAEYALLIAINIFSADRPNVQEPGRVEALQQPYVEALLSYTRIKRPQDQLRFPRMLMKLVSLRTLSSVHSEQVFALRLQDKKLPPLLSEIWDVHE", "assay": "Agonist activity at human LXRbeta expressed in HEK293 cells co-expressing CMX-beta-galactosidase incubated for 16 hrs by luciferase reporter gene assay", "assay_type": "cell-based"}, "[5]": {"molecular_target": "T4, Retinoic acid receptor RXR-gamma (Homo sapiens) (UniProt P48443)", "T4 sequence (whole entry)": "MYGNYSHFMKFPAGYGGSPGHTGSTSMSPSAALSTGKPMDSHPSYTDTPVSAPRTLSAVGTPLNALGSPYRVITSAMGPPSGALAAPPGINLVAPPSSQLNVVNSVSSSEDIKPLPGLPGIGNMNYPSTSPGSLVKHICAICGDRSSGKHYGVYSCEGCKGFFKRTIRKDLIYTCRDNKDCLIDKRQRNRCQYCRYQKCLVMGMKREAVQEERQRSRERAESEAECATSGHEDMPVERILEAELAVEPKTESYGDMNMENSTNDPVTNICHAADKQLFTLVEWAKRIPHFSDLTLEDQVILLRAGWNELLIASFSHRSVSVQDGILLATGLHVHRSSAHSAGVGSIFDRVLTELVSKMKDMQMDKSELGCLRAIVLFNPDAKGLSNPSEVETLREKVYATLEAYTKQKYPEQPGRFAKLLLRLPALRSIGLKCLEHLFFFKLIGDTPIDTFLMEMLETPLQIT", "assay": "Agonist activity at GAL4-tagged RXRgamma (unknown origin) expressed in HEK293 cells co-expressing CMX-beta-galactosidase at 0.3 to 30 uM incubated for 16 hrs by luciferase reporter gene assay", "assay_type": "cell-based"}, "[6]": {"molecular_target": "T5, Retinoic acid receptor gamma (Homo sapiens) (UniProt P13631)", "T5 sequence (whole entry)": "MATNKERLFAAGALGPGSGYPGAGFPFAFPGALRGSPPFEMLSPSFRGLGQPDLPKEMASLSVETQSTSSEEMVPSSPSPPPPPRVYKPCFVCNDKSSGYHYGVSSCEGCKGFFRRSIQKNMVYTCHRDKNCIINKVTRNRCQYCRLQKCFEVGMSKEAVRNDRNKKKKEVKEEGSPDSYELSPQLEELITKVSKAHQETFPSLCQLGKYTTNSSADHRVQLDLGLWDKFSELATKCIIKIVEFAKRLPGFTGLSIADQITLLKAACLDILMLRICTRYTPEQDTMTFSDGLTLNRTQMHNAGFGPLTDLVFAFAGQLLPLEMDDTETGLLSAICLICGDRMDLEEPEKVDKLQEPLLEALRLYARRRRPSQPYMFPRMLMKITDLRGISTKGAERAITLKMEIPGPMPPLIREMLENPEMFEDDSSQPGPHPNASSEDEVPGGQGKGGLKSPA", "assay": "Agonist activity at GAL4-tagged RARgamma (unknown origin) expressed in HEK293 cells co-expressing CMX-beta-galactosidase at 0.3 to 30 uM incubated for 16 hrs by luciferase reporter gene assay", "assay_type": "cell-based"}}, "note": "Activity calls are given as the source filed them. No cut-off for these calls is given here."}
{"compound": "O=C1c2c(Cl)c(Cl)c(Cl)c(Cl)c2C(=O)N1c1ccccc1/C=C/c1cccs1", "values": [{"measurement": "Activity", "setting": "[1]", "result": "inactive"}, {"measurement": "Efficacy", "setting": "[2]", "result": 6, "unit": "%"}, {"measurement": "Activity", "setting": "[3]", "result": "Dose-dependent effect"}, {"measurement": "EC50", "setting": "[4]", "result": 559, "unit": "nM"}, {"measurement": "Activity", "setting": "[5]", "result": "inactive"}, {"measurement": "Activity", "setting": "[6]", "result": "inactive"}]}
